According to PubChem BioAssay (NCI):
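Test compounds were applied to cells in 96-well plates for 48 hours at 5 doses. GI50: concentration for 50% inhibition of growth. TGI denotes the concentration required for complete inhibition of growth.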

Experiments:
Assay in all cases: growth of human tumour cells (NCI), 48 h
CCRF-CEM leukemia = tested on: CCRF-CEM leukemia
HCC-2998 colon = tested on: HCC-2998 colon
EKVX NSCLC = tested on: EKVX NSCLC
786-0 renal = tested on: 786-0 renal
OVCAR-5 ovarian = tested on: OVCAR-5 ovarian
MOLT-4 leukemia = tested on: MOLT-4 leukemia
HOP-92 NSCLC = tested on: HOP-92 NSCLC
IGROV1 ovarian = tested on: IGROV1 ovarian
HL-60(TB) leukemia = tested on: HL-60(TB) leukemia
A498 renal = tested on: A498 renal

Row | SMILES | TGI (CCRF-CEM leukemia) [µM] | TGI (HCC-2998 colon) [µM] | TGI (EKVX NSCLC) [µM] | TGI (786-0 renal) [µM] | TGI (OVCAR-5 ovarian) [µM] | TGI (MOLT-4 leukemia) [µM] | TGI (HOP-92 NSCLC) [µM] | TGI (IGROV1 ovarian) [µM] | TGI (HL-60(TB) leukemia) [µM] | TGI (A498 renal) [µM] | GI50 (CCRF-CEM leukemia) [µM] | GI50 (HCC-2998 colon) [µM] | GI50 (A498 renal) [µM] | GI50 (786-0 renal) [µM] | GI50 (OVCAR-5 ovarian) [µM] | GI50 (MOLT-4 leukemia) [µM] | GI50 (HOP-92 NSCLC) [µM] | GI50 (IGROV1 ovarian) [µM] | GI50 (HL-60(TB) leukemia) [µM] | GI50 (EKVX NSCLC) [µM]
1 | O=C(O)c1cc2c(cn1)[nH]c1ccccc12 | > 100 | > 100 | > 100 | > 100 | > 100 | > 100 | > 100 | > 100 | > 100 |  |  |  |  |  |  |  |  |  |  | 
2 | COC(=O)c1c(CC#N)cccc1CC#N | > 100 | > 100 | > 100 | > 100 | > 100 | > 100 | > 100 | > 100 | > 100 |  |  |  |  |  |  |  |  |  |  | 
3 | COc1ccc2ccc([Se]c3ccc4ccc(OC)cc4c3)cc2c1 | > 100 | > 100 |  | > 100 |  | > 100 | > 100 | > 100 | > 100 | > 100 |  |  |  |  |  |  |  |  |  | 
4 | O=S1(=O)C[C@@H](O)[C@H](O)CS1 |  | > 100 | > 100 | > 100 | > 100 | > 100 | > 100 | > 100 | > 100 | > 100 |  |  |  |  |  |  |  |  |  | 
5 | O=C(NOCC1CC1)c1ccc(F)c(F)c1Nc1ccc(I)cc1Cl | 19.1 | 2.69 |  | > 35.1 |  | 25.6 | 1.18 | 5.77 | 8.26 | 0.492 | 2.99 | 0.178 | 0.0639 | 2.7 | 0.0764 | 3.35 | 0.0927 | 1.05 | 0.19 | 
6 | CN(C)CCCNC(=O)c1cc(NC(=O)c2cc(NC(=O)c3cc(NC(=O)CCc4c[nH]c5ccccc45)cn3C)cn2C)cn1C | > 100 | > 100 | > 100 | > 100 | > 100 | > 100 | > 100 | > 100 | > 100 |  | > 100 | > 100 |  | > 100 | > 100 | > 100 | 67.1 | > 100 | > 100 | > 100
7 | COC[n+]1cc2cc(OC)c(OC)cc2c2ccc3cc(OC)c(OC)cc3c21 | > 100 | > 100 | > 100 | > 100 | > 100 | > 100 | > 100 | > 100 | > 100 |  |  |  |  |  |  |  |  |  |  | 
8 | O=C(Oc1ccc(CCl)cc1)c1ccccc1 | 0.146 | 0.385 | 1.79 | 0.286 | 0.302 | 0.538 | 0.348 | 0.419 |  | 1.83 | 0.0335 | 0.189 | 0.221 | 0.125 | 0.161 | 0.188 | 0.173 | 0.212 |  | 0.531
9 | O=C1C(=O)c2ccccc2C(O)=C1C(CCc1ccccc1)C1=C(O)c2ccccc2C(=O)C1=O | > 100 |  | > 100 | > 100 | > 100 |  | > 100 | > 100 | 15.4 | > 100 |  |  |  |  |  |  |  |  |  | 
10 | O=C([CH-]C(=O)c1ccccc1)c1ccccc1.O=C([CH-]C(=O)c1ccccc1)c1ccccc1.[Nd+3].[OH-].[OH3+] |  | 26.6 | 43.8 | 33.7 | 81.5 | 33.1 | 39.7 | 61.2 | 8.17 | 39.6 |  | 9.11 | 11 | 7.79 | 22.3 | 3.88 | 13.6 | 11.5 | 1.8 | 9.99
11 | C/C=C(\C)C(=O)O[C@H]1C=CC(=O)O[C@H]1CNC(=O)[C@H](C)O |  | 33.7 | 67.4 | 26.1 | 38.3 | 46.6 | 28.9 | 53.3 | 39.3 | 43.7 |  | 17.7 | 22.8 | 13.3 | 19.9 | 21.4 | 14.6 | 22.6 | 16.8 | 26.2
12 | CCOC(=O)Oc1c(OC)cc(C(=O)O[C@@H]2C[C@@H]3CN4CCc5c([nH]c6cc(OC)ccc56)[C@H]4C[C@@H]3[C@H](C(=O)OC)[C@H]2OC)cc1OC |  | 20 | 35.9 | 25.3 | 48.1 | 23.3 | 18.9 | 39.2 | 15.1 | > 100 |  | 5.06 | 7.38 | 9.62 | 18 | 4.04 | 3.64 | 9.58 | 3.64 | 5.78
